Data set [1] relates to New Zealand white rabbit eyes. Briefly: Measurement of intraocular pressure in rabbit eyes (tonometry). The data set is classed as in vivo. To be noted: rabbits, oral acetazolamide 12.92 mg/kg. The protocol: The inhibition of the ocular hypertension was determined by the following protocol: The experiments were performed in new New Zealand white rabbit eyes by using tonometry method. Rabbits were divided into groups; where each group consists of 4 animals. Group 1, Group 2, Group 3, Group 4 and Group 5 of Rabbits are administered with the predetermined concentrations of ophthalmic compositions of Example 1, 2, 3, 4 and 5 respectively. Group 6 of Rabbits are administered with oral acetazolamide 12.92 mg/kg. The intraocular pressure was measured at 0, 0.5, 1, 4, 8, 12 hrs. After 6 hours, one more administration of ophthalmic composition of Example 1 was instilled in Group 1 of Rabbits and the intraocular pressure was measured.
The percentage change in the intraocular pressure is depicted in the following table 1.

For data set [2] the following is noted: cited from earlier work.

Results on one compound are retold here after US10722498B2, “Acetazolamide ophthalmic solution” (INNOVATIVE NANO & MICRO TECHNOLOGIES PVT LTD (INM …, priority 2017, dated 2020).

As for `CC(=O)Nc1nnc(S(N)(=O)=O)s1` [Oral acetazolamide, acetazolamide], the “percentage change in the intraocular pressure” value in data set [1] (0.5 hrs after administration, 4 per group, eye drops instilled) was 18.00%; in data set [1] (1 hr after administration, eye drops instilled), 14.00%; in data set [1] (4 hrs after administration, eye drops instilled), 14.00%; in data set [1] (6 hrs after administration, eye drops instilled), 14.00%; in data set [1] (8 hrs after administration, Group 1 (Example 1) had a second instillation after 6 hours) it was 6.00%; in data set [1] (12 hrs after administration, Group 1 (Example 1) had a second instillation after 6 hours), 6.00%. For the same compound, the solubility in water result in data set [2] is “very low solubility in water”.
